Patent US20240124483A1, “Methods for the Treatment of Fibrotic Disease” (SHY Therapeutics, LLC, priority 2021, published 2024)
Where two headings read alike, the source gives them in different places.

Experiments:
ERK1/2 phosphorylation = assay: Western ERK1/2 Cell-Based Phosphorylation Assay; conditions: Homo sapiens, PANC-1, 6 hours, EGF 1.5 ng/ml, read-out: % inh of ERK1/2 phosphorylation in PANC-1
Protocol: Cell lines: Human tumor-derived pancreatic cancer cell line Panc-1 was purchased from American Type Culture Collection and grown in complete DMEM-High Glucose, supplemented with penicillin (100 U/mL), streptomycin (100 μg/mL), and 10% heat-inactivated FBS at 37° C. in a humidified incubator with 5% CO2.
(§1) Method: Cells were plated at 350000 cells/well density in a 12-well plate, allowed 3 hours to adhere to the plate, then starved in the appropriate medium in the presence of 0.5% FBS overnight. The small molecules to be tested were added to the cells in the final concentration of 10 μM in the presence of 0.3% DMSO for 6 hours incubation at 37° C. For IC50 value determination, serial dilutions of compounds were added to cells under the same conditions. Next, cells were stimulated with 1.5 ng/ml EGF for 15 minutes then cells were lysed with lysis buffer containing 1% Triton X-100, EDTA, and Halt™ Protease & Phosphatase Inhibitor Cocktail (Thermo Scientific). Protein concentration was assessed by BCA protein assay (Thermo Scientific). Phosphorylation level of ERK1/2 was determined by western blot.
(§2) Western blot protocol: Equal amounts of protein (15-50 μg) were separated by SDS-PAGE and transferred to nitrocellulose membranes (Invitrogen by Thermo Fisher Scientific). The membrane was stained with Ponceau S Stain (Boston BioProducts) to verify uniform protein loading. Membranes were blocked with 10% milk and phosphorylation levels of ERK1/2 were assessed by incubating overnight at 4° C. with anti-phospho-p44/42 (Thr202/Tyr204) antibody (Cell Signaling) followed by HRP-conjugated secondary antibody (Jackson Immunoresearch, West Grove, PA). Bands were incubated in Amersham ECL Prime Western Blotting Detection Reagent (GE Healthcare) and visualized using the ChemiDoc MP imaging system (Bio-Rad).

AKT phosphorylation = assay: Western AKT Cell-Based Phosphorylation Assay; conditions: Homo sapiens, PANC-1, 6 hours, EGF 1.5 ng/ml, read-out: % inh of AKT phosphorylation in PANC-1
Protocol: Human tumor-derived pancreatic cancer cell line Panc-1 was purchased from American Type Culture Collection and grown in complete DMEM-High Glucose supplemented with penicillin (100 U/mL), streptomycin (100 μg/mL), and 10% heat-inactivated FBS at 37° C. in a humidified incubator with 5% CO2.
as §1, with “C.” for “C. For IC50 value determination, serial dilutions of compounds were added to cells under the same conditions.”, “Akt” for “ERK1/2”
as §2, with “Akt” for “ERK1/2”, “anti-phospho-Akt (Ser473)” for “anti-phospho-p44/42 (Thr202/Tyr204)”

KRas Q61H mutant = KRas Q61H mutant (Homo sapiens (Human), UniProt P01116, Q61H); assay: Ras GTP Binding Domain Inhibition Assay, KRas Q61H mutant; conditions: 20 μM
Method in brief: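 His-tagged GTPase immobilized on nickel-coated plates (10-30 μg/mL, overnight, 4° C), then exposed to compound (20 μM or serial dilution for IC50, 1% DMSO) for 3 h at room temperature, with or without His-tagged Sos (residues 556-1049) in the final hour. Bound Cy3-GTP or Cy5-GTP (100 nM, 45 min) was read by fluorescence after washing.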

MiaPaca2 = MiaPaca2 proliferation; assay type: cell-based; conditions: Homo sapiens, MIA PaCa-2; for inhibition at 10 µM: read-out: % inh of proliferation in MiaPaca2
[1] = + SOS, read-out: KRas Q61H mutant + SOS: % inh.
[2] = without SOS, read-out: KRas Q61H mutant: % inh.

Sequence of KRas Q61H mutant (P01116 other isoform, or with tags, fused parts or gaps Q61H): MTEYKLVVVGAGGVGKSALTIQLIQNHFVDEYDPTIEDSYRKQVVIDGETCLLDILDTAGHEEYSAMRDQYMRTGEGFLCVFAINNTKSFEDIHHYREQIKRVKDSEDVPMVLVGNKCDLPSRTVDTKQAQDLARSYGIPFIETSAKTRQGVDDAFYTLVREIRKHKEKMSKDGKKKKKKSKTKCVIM

SMILES	inhibition at 20 µM (KRas Q61H mutant; [1])	inhibition at 20 µM (KRas Q61H mutant; [2])	IC50 (MiaPaca2)	inhibition at 10 µM (ERK1/2 phosphorylation)	inhibition at 10 µM (AKT phosphorylation)	inhibition at 10 µM (MiaPaca2)
Cc1c(-c2ccn(C(C)C)n2)sc2nc(-c3nccn3C)nc(NCCN3CCS(=O)(=O)CC3)c12 [Compound 23, 4-(2-((6-(1-Isopropyl-1H-pyrazol-3-yl)-5-methyl-2-(1-methyl-1H-imidazol-2-yl)thieno[2,3-d]pyrimidin-4-yl)amino)ethyl)thiomorpholine 1,1-dioxide]	76 to 100%	76 to 100%	> 10 µM	0%	0%	0%
COCCOc1nc(-c2nccn2C)nc2sc(-c3ccn(C(C)C)n3)c(C)c12 [Compound 30, 6-(1-Isopropyl-1H-pyrazol-3-yl)-4-(2-methoxyethoxy)-5-methyl-2-(1-methyl-1H-imidazol-2-yl)thieno[2,3-d]pyrimidine]	1 to 25%	0%	> 10 µM	0%	0%	1 to 25%
COCCCn1c(-c2nccn2C)nc2sc(-c3ccn(C(C)C)n3)c(C)c2c1=O [Compound 31, 6-(1-Isopropyl-1H-pyrazol-3-yl)-3-(3-methoxypropyl)-5-methyl-2-(1-methyl-1H-imidazol-2-yl)thieno[2,3-d]pyrimidin-4(3H)-one]	0%	0%	> 10 µM	0%	0%	0%
COCCCCn1c(-c2nccn2C)nc2sc(-c3ccn(C(C)C)n3)c(C)c2c1=O [Compound 33, 6-(1-Isopropyl-1H-pyrazol-3-yl)-3-(4-methoxybutyl)-5-methyl-2-(1-methyl-1H-imidazol-2-yl)thieno[2,3-d]pyrimidin-4(3H)-one]	1 to 25%	0%	> 10 µM	0%	0%	0%
COCCCCOc1nc(-c2nccn2C)nc2sc(-c3ccn(C(C)C)n3)c(C)c12 [Compound 34, 6-(1-Isopropyl-1H-pyrazol-3-yl)-4-(4-methoxybutoxy)-5-methyl-2-(1-methyl-1H-imidazol-2-yl)thieno[2,3-d]pyrimidine]	1 to 25%	0%	> 10 µM	0%	0%	26 to 45%
COc1cc(Cn2c(-c3nccn3C)nc3sc(-c4ccn(C(C)C)n4)c(C)c3c2=O)ncn1 [Compound 35, 6-(1-Isopropyl-1H-pyrazol-3-yl)-3-((6-methoxypyrimidin-4-yl)methyl)-5-methyl-2-(1-methyl-1H-imidazol-2-yl)thieno[2,3-d]pyrimidin-4(3H)-one]	1 to 25%	1 to 25%	> 10 µM	0%	0%	0%
COCCCn1c(-c2nccn2C)nc2sc(-c3ccn(C(C)C)n3)c(-c3ccccc3)c2c1=O [Compound 36, 6-(1-Isopropyl-1H-pyrazol-3-yl)-3-(3-methoxypropyl)-2-(1-methyl-1H-imidazol-2-yl)-5-phenylthieno[2,3-d]pyrimidin-4(3H)-one]	0%	0%	5 to 10 µM	0%	0%	76 to 100%
COCCCOc1nc(-c2nccn2C)nc2sc(-c3ccn(C(C)C)n3)c(-c3ccccc3)c12 [Compound 37, 6-(1-Isopropyl-1H-pyrazol-3-yl)-4-(3-methoxypropoxy)-2-(1-methyl-1H-imidazol-2-yl)-5-phenylthieno[2,3-d]pyrimidine]	0%	0%	> 10 µM	0%	0%	1 to 25%
COc1cccc(-c2sc3nc(-c4nccn4C)nc(N[C@H]4C[C@H](OC)C4)c3c2C)c1F [Compound 42, 6-(2-Fluoro-3-methoxyphenyl)-N-((1r,3r)-3-methoxycyclobutyl)-5-methyl-2-(1-methyl-1H-imidazol-2-yl)thieno[2,3-d]pyrimidin-4-amine]	76 to 100%	46 to 75%	5 to 10 µM	46 to 75%	26 to 45%	76 to 100%

Now from value to compound, other results behind:

inhibition at 20 µM (KRas Q61H mutant; [1])	inhibition at 20 µM (KRas Q61H mutant; [2])	IC50 (MiaPaca2)	SMILES	inhibition at 10 µM (ERK1/2 phosphorylation)	inhibition at 10 µM (AKT phosphorylation)	inhibition at 10 µM (MiaPaca2)
76 to 100%	76 to 100%	5 to 10 µM	Cc1c(-c2ccn(C(C)C)n2)sc2nc(-c3nccn3C)nc(NCCN3CCOCC3)c12 [Compound 22, 6-(1-Isopropyl-1H-pyrazol-3-yl)-5-methyl-2-(1-methyl-1H-imidazol-2-yl)-N-(2-morpholinoethyl)thieno[2,3-d]pyrimidin-4-amine]	0%	1 to 25%	76 to 100%
76 to 100%	46 to 75%	5 to 10 µM	CO[C@H]1CNC[C@@H](Nc2nc(-c3nccn3C)nc3sc(-c4ccn(C(C)C)n4)cc23)C1 [Compound 28, 6-(1-Isopropyl-1H-pyrazol-3-yl)-N-((3S,5R)-5-methoxypiperidin-3-yl)-2-(1-methyl-1H-imidazol-2-yl)thieno[2,3-d]pyrimidin-4-amine]	46 to 75%	26 to 45%	76 to 100%
76 to 100%	46 to 75%	5 to 10 µM	COCCn1c(-c2nccn2C)nc2sc(-c3ccn(C(C)C)n3)c(C)c2c1=O [Compound 29, 6-(1-Isopropyl-1H-pyrazol-3-yl)-3-(2-methoxyethyl)-5-methyl-2-(1-methyl-1H-imidazol-2-yl)thieno[2,3-d]pyrimidin-4(3H)-one]	0%	0%	46 to 75%
46 to 75%	46 to 75%	5 to 10 µM	COCCCOc1nc(-c2nccn2C)nc2sc(-c3ccn(C(C)C)n3)c(C)c12 [Compound 32, 6-(1-Isopropyl-1H-pyrazol-3-yl)-4-(3-methoxypropoxy)-5-methyl-2-(1-methyl-1H-imidazol-2-yl)thieno[2,3-d]pyrimidine]	0%	1 to 25%	76 to 100%
76 to 100%	76 to 100%	1 to 4.99 µM	COc1cccc(-c2sc3nc(-c4nccn4C)nc(N[C@H]4C[C@H](OC)C4)c3c2-c2ccccc2)c1F [Compound 40, 6-(2-Fluoro-3-methoxyphenyl)-N-((1r,3r)-3-methoxycyclobutyl)-2-(1-methyl-1H-imidazol-2-yl)-5-phenylthieno[2,3-d]pyrimidin-4-amine]	76 to 100%	76 to 100%	76 to 100%
76 to 100%	46 to 75%	1 to 4.99 µM	COc1nccc(-c2sc3nc(-c4nccn4C)nc(N[C@H]4C[C@H](OC)C4)c3c2-c2ccccc2)c1F [Compound 45, 6-(3-Fluoro-2-methoxypyridin-4-yl)-N-((1r,3r)-3-methoxycyclobutyl)-2-(1-methyl-1H-imidazol-2-yl)-5-phenylthieno[2,3-d]pyrimidin-4-amine]	76 to 100%	76 to 100%	76 to 100%
